Data on 1 molecule can be found in patent US8828988B2 (Tetraphase Pharmaceuticals, Inc., priority 2009, dated 2014).

Assay [1] deals with S. aureus strains collected from various geographical sources. Description: MIC50 and MIC90 analysis (Example 22).
Method: (§1) Frozen bacterial strains were thawed and subcultured onto Mueller Hinton Broth (MHB) or other appropriate media (Streptococcus requires blood and Haemophilus requires hemin and NAD). Following incubation overnight, the strains were subcultured onto Mueller Hinton Agar and again incubated overnight. […] Isolated colonies were selected to prepare a starting inoculum equivalent to a 0.5 McFarland standard. […] Antibiotics (stored frozen, thawed and used within 3 hours of thawing) and compounds were further diluted to the desired working concentrations.
(§2) The assays were run as follows. Fifty μL of MHB was added to wells 2-12 of a 96-well plate. One hundred μL of appropriately diluted antibiotic or compound was added to well 1. Fifty μL of antibiotics or compound was removed from well 1 and added to well 2 and the contents of well 2 mixed by pipetting up and down five times. Fifty μL of the mixture in well 2 was removed and added to well 3 and mixed as above. Serial dilutions were continued in the same manner through well 12. Fifty μL was removed from well 12 so that all contained 50 μL. Fifty μL of the working inoculum was then added to all test wells. A growth control well was prepared by adding 50 μL of working inoculum and 50 μL of MHB to an empty well. The plates were then incubated at 37° C. overnight, removed from the incubator and each well was read on a plate reading mirror. The lowest concentration (MIC) of test compound that inhibited the growth of the bacteria was recorded.
(§3) MIC, MIC50 and MIC90 values were determined according to CLSI methodology. S. pneumoniae and H. influenzae isolates were obtained from Eurofins-Medinet and are recent clinical isolates. S. aureus strains were collected from various geographical sources.
In assay [2] the test system is Klebsiella pneumoniae KP153, tetracycline-resistant, tet(A), MDR, ESBL+. The assay is described as follows: MIC assay, KP153. The assay is classed as cell-based. As to conditions: Table 9, read-out: MIC Klebsiella pneum KP153 (tet)A.
Assay [3] deals with Staphylococcus aureus SA158, tetracycline-resistant tet(K). Description: MIC assay, SA158. The assay is classed as cell-based.
In assay [4] the test system is Escherichia coli EC107, ATCC 25922. The assay is described as follows: MIC assay, EC107. The format is cell-based.
The subject of assay [5] is H. influenzae isolates (Eurofins-Medinet, recent clinical isolates). Description: MIC50 and MIC90 analysis (Example 22).
Method: as §1, §2, §3
In assay [6] the test system is Escherichia coli EC155, tetracycline-resistant, tet(A). The assay is described as follows: MIC assay, EC155. The assay is classed as cell-based.

≈ marks a conversion by molar mass, not a printed value. Like-named read-outs stand apart in the source and are kept apart here.

As for `CN(C)CC(C)(C)CNc1nc(Cl)c2c(c1O)C(=O)C1=C(O)[C@]3(O)C(=O)C(C(N)=O)=C(O)[C@@H](N(C)C)[C@@H]3C[C@@H]1C2` [Compound 151], the MIC Range in assay [1] (S. aureus (n = 20)) fell in the range of 0.063 to 0.5 µg/mL; in assay [5] (H. influenzae (n = 12)), 0.25 to 2 µg/mL. Moreover, the values for the MIC50 in assay [1] (Staphylococcus aureus) and in assay [5] (Haemophilus influenzae) were 0.13 µg/mL (≈ 0.225 µM) and 1 µg/mL (≈ 1.73 µM), respectively. In addition, the MIC90 in assay [1] (Staphylococcus aureus) worked out at 0.25 µg/mL (≈ 0.432 µM); in assay [5] (Haemophilus influenzae) it was 1 µg/mL (≈ 1.73 µM). Further, the minimum inhibitory concentration (MIC) (in general, the lowest concentration that inhibits growth of the organism) in assay [2] is 8 µg/mL (≈ 13.8 µM); in assay [3] (Table 8, read-out: MIC S. aureus tetK), 0.13 µg/mL (≈ 0.225 µM); in assay [3] (Table 9, read-out: MIC S. aureus SA158 (tet)K), 0.125 µg/mL (≈ 0.216 µM); in assay [4] (ATCC25922, Table 8, read-out: MIC E. coli ATCC 25922), 0.5 µg/mL (≈ 0.865 µM); in assay [4] (ATCC25922, Table 9, read-out: MIC E. coli ATCC 25922), 0.5 µg/mL (≈ 0.865 µM); in assay [4] (ATCC25922, Table 12, read-out: MIC E. coli ATCC 25922) it was 0.25 µg/mL (≈ 0.432 µM). Besides, the MIC in assay [6] (Table 8, read-out: MIC E. coli tetA) worked out at 8 µg/mL (≈ 13.8 µM); in assay [6] (Table 9, read-out: MIC E. coli EC155 (tet)A) it was 8 µg/mL (≈ 13.8 µM).
